Where “and” joins values, the source holds several entries; their conditions need not be identical. Identical values can stand only once.
Tested on: 327498-153-R-J2-PDC complex spheroid growth, % test/control
Assay: Anticancer human tumor 327498-153-R-J2-PDC patient-derived uterine carcinosarcoma cell line growth inhibition [Asc]
Settings: for viability, T/C: stronger effect = lower value
How it was run: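 Stromal components (HUVEC and hMSC) are co-assembled with the cancer cells into multicellular spheroids. Drugs are then added singly or paired, at concentrations falling by half-log increments from a clinically achievable maximum, capped at 10 microM without known Cmax.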

[1] = curve of first compound, second compound 0.1 µM
[2] = curve of first compound, second compound 0.316 µM
[3] = curve of first compound, second compound 1 µM
[4] = curve of first compound, second compound 3.16 µM
[5] = curve of first compound, second compound 10 µM
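Note: spheroids exposed to compound for 7 days after 3 days of growth.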
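Throughout, for viability, T/C: 100% = DMSO vehicle control wells.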

With `Cc1nc(N2CCC3(CC2)COC(C)C3N)c(CO)nc1Sc1ccnc(N)c1Cl` (configuration not stated) + Cc1c(S(C)(=O)=O)c(-c2cc(F)cc(N3CCN(c4ccc(NS(=O)(=O)c5ccc(NC(CCN6CCC(C(=O)OCCCP(=O)(O)O)CC6)CSc6ccccc6)c(S(=O)(=O)C(F)(F)F)c5)cc4)CC3)c2)c(-c2ccc(Cl)cc2)n1C(C)C the IC50 [1] was 1560 nM, the IC50 [2] was 625 nM and the IC50 [3] was 594 nM. For the same compound, the IC50 [4] was 829 nM, the IC50 [5] was over 3000 nM and the viability, T/C (second compound 0.1 µM, first compound 0.00949 µM) was 98.7%. It also gave a viability, T/C (second compound 0.1 µM, first compound 0.03 µM) of 90.4%, a viability, T/C (second compound 0.1 µM, first compound 0.0949 µM) of 83.8% and a viability, T/C (second compound 0.1 µM, first compound 0.3 µM) of 65.8%. The viability, T/C (second compound 0.1 µM, first compound 0.949 µM) was 54.8%, the viability, T/C (second compound 0.1 µM, first compound 3 µM) was 44.5% and the viability, T/C (second compound 0.316 µM, first compound 0.00949 µM) was 94.9%. The viability, T/C (second compound 0.316 µM, first compound 0.03 µM) was 94.2%, the viability, T/C (second compound 0.316 µM, first compound 0.0949 µM) was 70.2% and the viability, T/C (second compound 0.316 µM, first compound 0.3 µM) was 59.5%. The viability, T/C (second compound 0.316 µM, first compound 0.949 µM) was 46.6%, the viability, T/C (second compound 0.316 µM, first compound 3 µM) was 38.9% and the viability, T/C (second compound 1 µM, first compound 0.00949 µM) was 95.3%. The viability, T/C (second compound 1 µM, first compound 0.03 µM) was 93.6%, the viability, T/C (second compound 1 µM, first compound 0.0949 µM) was 68.6% and the viability, T/C (second compound 1 µM, first compound 0.3 µM) was 58.4%. The viability, T/C (second compound 1 µM, first compound 0.949 µM) was 47.1%, the viability, T/C (second compound 1 µM, first compound 3 µM) was 38.3% and the viability, T/C (second compound 3.16 µM, first compound 0.00949 µM) was 98%. It also gave a viability, T/C (second compound 3.16 µM, first compound 0.03 µM) of 92%, a viability, T/C (second compound 3.16 µM, first compound 0.0949 µM) of 65.1% and a viability, T/C (second compound 3.16 µM, first compound 0.3 µM) of 64.6%. For the same compound, the viability, T/C (second compound 3.16 µM, first compound 0.949 µM) was 47%, the viability, T/C (second compound 3.16 µM, first compound 3 µM) was 42.5% and the viability, T/C (second compound 10 µM, first compound 0.00949 µM) was 179%. The viability, T/C (second compound 10 µM, first compound 0.03 µM) was 178%, the viability, T/C (second compound 10 µM, first compound 0.0949 µM) was 145% and the viability, T/C (second compound 10 µM, first compound 0.3 µM) was 142%. It also gave a viability, T/C (second compound 10 µM, first compound 0.949 µM) of 138% and a viability, T/C (second compound 10 µM, first compound 3 µM) of 117%.

For `O=C(c1cc(Cc2n[nH]c(=O)c3ccccc23)ccc1F)N1CCN(C(=O)C2CC2)CC1` + Cc1c(S(C)(=O)=O)c(-c2cc(F)cc(N3CCN(c4ccc(NS(=O)(=O)c5ccc(NC(CCN6CCC(C(=O)OCCCP(=O)(O)O)CC6)CSc6ccccc6)c(S(=O)(=O)C(F)(F)F)c5)cc4)CC3)c2)c(-c2ccc(Cl)cc2)n1C(C)C, the IC50 [1] was 3740 nM, the IC50 [2] was 2530 nM and the IC50 [3] was 2490 nM. It also gave an IC50 [4] of 2500 nM, an IC50 [5] of 3150 nM and a viability, T/C (second compound 0.1 µM, first compound 0.0316 µM) of 103%. For the same compound, the viability, T/C (second compound 0.1 µM, first compound 0.1 µM) was 102%, the viability, T/C (second compound 0.1 µM, first compound 0.316 µM) was 88.6% and the viability, T/C (second compound 0.1 µM, first compound 1 µM) was 88.1%. For the same compound, the viability, T/C (second compound 0.1 µM, first compound 3.16 µM) was 55.5%, the viability, T/C (second compound 0.1 µM, first compound 10 µM) was 9.69% and the viability, T/C (second compound 0.316 µM, first compound 0.0316 µM) was 85.4%. The viability, T/C (second compound 0.316 µM, first compound 0.1 µM) was 89.2%, the viability, T/C (second compound 0.316 µM, first compound 0.316 µM) was 86.4% and the viability, T/C (second compound 0.316 µM, first compound 1 µM) was 75.4%. For the same compound, the viability, T/C (second compound 0.316 µM, first compound 3.16 µM) was 43.9%, the viability, T/C (second compound 0.316 µM, first compound 10 µM) was 7.08% and the viability, T/C (second compound 1 µM, first compound 0.0316 µM) was 94.5%. For the same compound, the viability, T/C (second compound 1 µM, first compound 0.1 µM) was 102%, the viability, T/C (second compound 1 µM, first compound 0.316 µM) was 86.9% and the viability, T/C (second compound 1 µM, first compound 1 µM) was 76.9%. The viability, T/C (second compound 1 µM, first compound 3.16 µM) was 43%, the viability, T/C (second compound 1 µM, first compound 10 µM) was 6.29% and the viability, T/C (second compound 3.16 µM, first compound 0.0316 µM) was 94%. For the same compound, the viability, T/C (second compound 3.16 µM, first compound 0.1 µM) was 89.5%, the viability, T/C (second compound 3.16 µM, first compound 0.316 µM) was 86% and the viability, T/C (second compound 3.16 µM, first compound 1 µM) was 76%. For the same compound, the viability, T/C (second compound 3.16 µM, first compound 3.16 µM) was 43.2%, the viability, T/C (second compound 3.16 µM, first compound 10 µM) was 4.54% and the viability, T/C (second compound 10 µM, first compound 0.0316 µM) was 164%. For the same compound, the viability, T/C (second compound 10 µM, first compound 0.1 µM) was 164%, the viability, T/C (second compound 10 µM, first compound 0.316 µM) was 157% and the viability, T/C (second compound 10 µM, first compound 1 µM) was 112%. For the same compound, the viability, T/C (second compound 10 µM, first compound 3.16 µM) was 49.1% and the viability, T/C (second compound 10 µM, first compound 10 µM) was 6.96%.

In the case of `C=CC(=O)N1CCN(c2nc(=O)n(-c3c(C)ccnc3C(C)C)c3nc(-c4c(O)cccc4F)c(F)cc23)C(C)C1` (configuration not stated) + CCN1C(C(=O)NC23CCC(C(=O)O)(CC2)CC3)C(c2cccc(Cl)c2F)C2(C(=O)Nc3cc(Cl)ccc32)C12CCCCC2, the IC50 (curve of first compound, second compound 0.03 µM) is reported as over 10000 nM, the IC50 (curve of first compound, second compound 0.0949 µM) is reported as under 31.6 nM and the IC50 (curve of first compound, second compound 0.3 µM) is reported as under 31.6 nM. It also gave an IC50 (curve of first compound, second compound 0.949 µM) of under 31.6 nM, an IC50 (curve of first compound, second compound 3 µM) of under 31.6 nM and a viability, T/C (second compound 0.03 µM, first compound 0.0316 µM) of 80.2%. It also gave a viability, T/C (second compound 0.03 µM, first compound 0.1 µM) of 66.8%, a viability, T/C (second compound 0.03 µM, first compound 0.316 µM) of 61.3% and a viability, T/C (second compound 0.03 µM, first compound 1 µM) of 61%. It also gave a viability, T/C (second compound 0.03 µM, first compound 3.16 µM) of 60.4%, a viability, T/C (second compound 0.03 µM, first compound 10 µM) of 47.7% and a viability, T/C (second compound 0.0949 µM, first compound 0.0316 µM) of 48.1%. It also gave a viability, T/C (second compound 0.0949 µM, first compound 0.1 µM) of 43.3%, a viability, T/C (second compound 0.0949 µM, first compound 0.316 µM) of 39.1% and a viability, T/C (second compound 0.0949 µM, first compound 1 µM) of 40.8%. The viability, T/C (second compound 0.0949 µM, first compound 3.16 µM) was 31%, the viability, T/C (second compound 0.0949 µM, first compound 10 µM) was 23.5% and the viability, T/C (second compound 0.3 µM, first compound 0.0316 µM) was 25.8%. For the same compound, the viability, T/C (second compound 0.3 µM, first compound 0.1 µM) was 22.3%, the viability, T/C (second compound 0.3 µM, first compound 0.316 µM) was 21.1% and the viability, T/C (second compound 0.3 µM, first compound 1 µM) was 13.9%. The viability, T/C (second compound 0.3 µM, first compound 3.16 µM) was 15.8%, the viability, T/C (second compound 0.3 µM, first compound 10 µM) was 10.9% and the viability, T/C (second compound 0.949 µM, first compound 0.0316 µM) was 6.85%. The viability, T/C (second compound 0.949 µM, first compound 0.1 µM) was 10.2%, the viability, T/C (second compound 0.949 µM, first compound 0.316 µM) was 5.74% and the viability, T/C (second compound 0.949 µM, first compound 1 µM) was 6.83%. It also gave a viability, T/C (second compound 0.949 µM, first compound 3.16 µM) of 5.12%, a viability, T/C (second compound 0.949 µM, first compound 10 µM) of 4.58% and a viability, T/C (second compound 3 µM, first compound 0.0316 µM) of 2.47%. It also gave a viability, T/C (second compound 3 µM, first compound 0.1 µM) of 2.14%, a viability, T/C (second compound 3 µM, first compound 0.316 µM) of 2.66% and a viability, T/C (second compound 3 µM, first compound 1 µM) of 2.75%. The viability, T/C (second compound 3 µM, first compound 3.16 µM) was 3.23% and the viability, T/C (second compound 3 µM, first compound 10 µM) was 2.77%.

For `CCN1CCN(Cc2ccc(Nc3ncc(F)c(-c4cc(F)c5nc(C)n(C(C)C)c5c4)n3)nc2)CC1`, the viability, T/C (compound 0.00316 µM) was 95% and 98.3% and 99.9%, the viability, T/C (compound 0.01 µM) was 82.9% and 85.2% and 108% and the viability, T/C (compound 0.0316 µM) was 78% and 88.9% and 94.2%. The viability, T/C (compound 0.1 µM) was 73.7% and 77.4% and 81.4%, the viability, T/C (compound 0.316 µM) was 70.5% and 69.2% and 73.2% and the viability, T/C (compound 1 µM) was 63.1% and 63.3% and 75.3%. For the same compound, the IC50 (curve of compound) was over 1000 nM.

— PubChem BioAssay AID1963424 (Molecular Pharmacology Branch, DTP, NCI, 2024)
